The compounds below were run on 8XTBD luciferase reporter (assay: YAP Reporter Assay). Details: Homo sapiens, HEK-293T; HEK293T cells stably transfected with 8XTBD luciferase reporter and pRLTK; 24-hr incubation; starting from 3 μM, 1:3 dilution, 10 points; read-out: Firefly Luciferase IC50.
Assay type: cell-based
Experimental: HEK293T cells stably transfected with 8XTBD luciferase reporter and pRLTK in 384-well plates were treated with the test compounds, starting from 3 μM (final concentration in assay plate), 1:3 dilution, and 10 points in quadruplicates. Post 24-hr incubation with compounds at 37° C. and 5% CO2, cells were lysed and 8XTBD-driven firefly luciferase and control TK-driven renilla luciferase activities were measured using Promega Dual-Luciferase Reporter Assay System.
Reagents: The reagents used for this study are: DMEM: Invitrogen #11960077, Dual-Glo Luciferase Assay System: Promega-E2980, Puromycin Dihydrochloride: Invitrogen-A1113803, 384-well plate: PerkinElmer-6007480, L-GLUTAMINE: Invitrogen-25030164, Hygromycin B: Invitrogen-10687010, and Penicillin-Streptomycin: Merk-TMS-AB2-C
Media: The media used for this assay were: Culture Medium: DMEM+1 ug/mL puromycin+200 ug/mL hygromycin (with 10% FBS+1 mM L-glutamine); and Assay Medium: DMEM (with 10% FBS+1 mM L-glutamine+1×P/S).
Cell Plating: The appropriate media was warmed at 37° C. by water bath: Culture Medium, Assay Medium, 1* D-PBS, 0.05% trypsin-EDTA. The cells were trypsinized after removing all media, then washed with 1* sterile D-PBS and then with 2 ml 0.05% trypsin-EDTA. The cells were then incubated at RT for one minute. Then 10 ml/75 cm2 flask Assay Medium was added to each flask. Using a 10 ml pipette, the cells were then gently resuspended in the media, until the clumps completely disappeared. The cells were then transferred into 50 ml centrifuge tubes and were centrifuged at 800 rpm for 5 mins. The medium was removed and the cells were resuspended with Assay Medium. An aliquot of cells was used to count the cell density (cells/ml). The cell suspension was then diluted with Assay Medium to a concentration of 6×10^4 cells/ml. 50 ul cells suspension was then plated to 384-well plate (PerkinElmer-6007480), 3×10^3 cells/well and the cells were incubated in an incubator at 37° C., 5% CO2.
Compound Treatment: In the afternoon (incubation of the plate with 3-4 hrs), the test compounds were added by Echo, starting from 3 uM (final concentration in the assay plate), 1:3 dilution, 10 points, quadruplicates. The plate was placed at 37° C., 5% CO2 incubator for 24 hrs.
Detection: The Dual-Glo Luciferase Reagent was prepared by transferring the contents of one bottle of Dual-Glo Luciferase Buffer to one bottle of Dual-Glo Luciferase Substrate to create the Dual-Glo Luciferase Reagent. Mixing was performed by inversion until the substrate was thoroughly dissolved. After mixing, the reagent was aliquoted into 15 ml tubes. In the afternoon (24 hrs post compound treatment), the DMEM+ medium in the 384 well plates were aspirated by Microplate Washer.
Measuring firefly luciferase activity: 20 ul Dual-Glo Luciferase Reagent was added to the 384-well plates. The plates were protected from light to prevent interference with the assay. The plates were shaken for 1 min followed centrifuging plates at 1000 rpm for 30 seconds. After waiting at least 10 minutes, the firefly luminescence was measured by Envision.
Measuring renilla luciferase activity: 20 ul Stop-Glo Reagent was added to the 384-well plates. The plates were shaken for 1 min and then centrifuged at 1000 rpm for 30 seconds. After waiting at least 10 minutes, the renilla luminescence was measured by Envision.
Compound IC50 and maximum inhibition on the firefly luciferase and renilla luciferase activities were reported separately.
With CCn1cnc(-c2cc(S(=O)(=O)NC)ccc2NC2CCCCC2)c1 [Compound 112, 4-(cyclohexylamino)-3-(1-ethyl-1H-imidazol-4-yl)-N-methylbenzenesulfonamide] the IC50 was at most 0.1 µM. Work on CNS(=O)(=O)c1ccc(Nc2ccc(SC(F)(F)F)cc2)c(-c2cn(C)cn2)c1 [Compound 144, N-methyl-3-(1-methylimidazol-4-yl)-4-[4-(trifluoromethylsulfanyl)anilino] benzenesulfonamide] yielded an IC50 of at most 0.1 µM. Compound CNS(=O)(=O)c1ccc(NC2CCCCC2)c(-c2nnn(C3CCN(S(C)(=O)=O)C3)n2)c1 (stereo not drawn) [Compound 43, 4-(cyclohexylamino)-N-methyl-3-(2-(1-(methylsulfonyl)pyrrolidin-3-yl)-2H-tetrazol-5-yl)benzenesulfonamide] has an IC50 of over 3 µM. CNS(=O)(=O)c1ccc(Nc2cccc(F)c2F)c(-c2nnn(C)n2)c1 [Compound 104, 4-((2,3-difluorophenyl)amino)-N-methyl-3-(2-methyl-2H-tetrazol-5-yl)benzenesulfonamide] showed an IC50 of 0.1 to 1 µM. Compound CS(=O)(=O)c1ccc(NC2CCCCC2)c(-n2cncn2)c1 [Compound 12, N-cyclohexyl-4-(methylsulfonyl)-2-(1H-1,2,4-triazol-1-yl)aniline] has an IC50 of over 3 µM. CS(=O)(=O)c1ccc(NC2CCCCC2)c(-n2cccn2)c1 [Compound 10, N-cyclohexyl-4-(methylsulfonyl)-2-(1H-pyrazol-1-yl)aniline] gave an IC50 of 1 to 3 µM. For CNS(=O)(=O)c1ccc(Nc2cccc(OC(F)(F)F)c2)c(-c2nnnn2C)c1 [Compound 100, N-methyl-3-(1-methyl-1H-tetrazol-5-yl)-4-((3-(trifluoromethoxy)phenyl)amino)benzenesulfonamide], the IC50 was over 3 µM. CNS(=O)(=O)c1ccc(NC2CCCCC2)c(-c2nnn(C3CN(C(=O)OC(C)(C)C)C3)n2)c1 [Compound 25, tert-butyl 3-(5-(2-(cyclohexylamino)-5-(N-methylsulfamoyl)phenyl)-2H-tetrazol-2-yl)azetidine-1-carboxylate] showed an IC50 of over 3 µM. CNS(=O)(=O)c1ccc(Nc2ccccc2OC(F)(F)F)c(-c2nnn(C)n2)c1 [Compound 102, N-methyl-3-(2-methyl-2H-tetrazol-5-yl)-4-((2-(trifluoromethoxy)phenyl)amino)benzenesulfonamide] was tested, and the IC50 was over 3 µM. CNS(=O)(=O)c1ccc(NC2CCCCC2)c(-c2nnn(C3CCCN(c4cccnc4)C3)n2)c1 (stereo not drawn) [Compound 86, 4-(cyclohexylamino)-N-methyl-3-(2-(1-(pyridin-3-yl)piperidin-3-yl)-2H-tetrazol-5-yl)benzenesulfonamide] was tested, and the IC50 was 0.1 to 1 µM. CNS(=O)(=O)c1ccc(NC2CCCCC2)c(-c2nnnn2C2CCCNC2)c1 (stereo not drawn) [Compound 75, 4-(cyclohexylamino)-N-methyl-3-(1-(piperidin-3-yl)-1H-tetrazol-5-yl)benzenesulfonamide] gave an IC50 of 1 to 3 µM. Compound CNS(=O)(=O)c1ccc(Nc2ccc(C(F)(F)F)cc2)c(-c2nnn(Cc3ccccc3F)n2)c1 [Compound 137, 3-[2-[(2-Fluorophenyl)methyl]tetrazol-5-yl]-N-methyl-4-[4-(trifluoromethyl)anilino]benzene-sulfonamide] has an IC50 of at most 0.1 µM. Work on CNS(=O)(=O)c1ccc(Nc2cc(F)cc(F)c2)c(-c2nnnn2C)c1 [Compound 107, 4-((3,5-difluorophenyl)amino)-N-methyl-3-(1-methyl-1H-tetrazol-5-yl)benzenesulfonamide] yielded an IC50 of over 3 µM. CNS(=O)(=O)c1ccc(Nc2ccccc2C(F)(F)F)c(-c2nnn(C)n2)c1 [Compound 93, N-methyl-3-(2-methyl-2H-tetrazol-5-yl)-4-((2-(trifluoromethyl)phenyl)amino)benzenesulfonamide] was tested, and the IC50 was over 3 µM. Work on CNS(=O)(=O)c1ccc(NC2CCCCC2)c(-c2cn(C)cn2)c1 [Compound 82, 4-(cyclohexylamino)-N-methyl-3-(1-methyl-1H-imidazol-4-yl)benzenesulfonamide] yielded an IC50 of at most 0.1 µM. CNS(=O)(=O)c1ccc(NC2CCCCC2)c(-c2nnn(C)n2)c1 [Compound 22, 4-(cyclohexylamino)-N-methyl-3-(2-methyl-2H-tetrazol-5-yl)benzenesulfonamide] showed an IC50 of at most 0.1 µM. In the case of CNS(=O)(=O)c1ccc(Nc2ccccc2C(F)(F)F)c(-c2nnnn2C)c1 [Compound 98, N-methyl-3-(1-methyl-1H-tetrazol-5-yl)-4-((2-(trifluoromethyl)phenyl)amino)benzenesulfonamide], the IC50 is reported as over 3 µM. In the case of CNS(=O)(=O)c1ccc(Nc2ccc(-c3ccccc3)cc2)c(-c2nnn(C)n2)c1 [Compound 128, N-methyl-3-(2-methyltetrazol-5-yl)-4-(4-phenylanilino) benzenesulfonamide], the IC50 is reported as 1 to 3 µM. CNS(=O)(=O)c1ccc(NC2CCCCC2)c(-c2nnn(Cc3ccccc3F)n2)c1 [Compound 19, 4-(cyclohexylamino)-3-(2-(2-fluorobenzyl)-2H-tetrazol-5-yl)-N-methylbenzenesulfonamide] was tested, and the IC50 was at most 0.1 µM. CNS(=O)(=O)c1ccc(Nc2cccc(SC(F)(F)F)c2)c(-c2cn(C)cn2)c1 [Compound 141, N-methyl-3-(1-methylimidazol-4-yl)-4-[3-(trifluoromethylsulfanyl)anilino] benzenesulfonamide] was tested, and the IC50 was at most 0.1 µM. CNS(=O)(=O)c1ccc(NC2CCCCC2)c(-c2cccc(N(C)C)n2)c1 [Compound 83, 4-(cyclohexylamino)-3-(6-(dimethylamino)pyridin-2-yl)-N-methylbenzenesulfonamide] gave an IC50 of over 3 µM. Compound CNS(=O)(=O)c1ccc(Nc2ccc(C(F)(F)F)cc2)c(-c2nnc(N)o2)c1 [Compound 133, 3-(5-amino-1,3,4-oxadiazol-2-yl)-N-methyl-4-[4-(trifluoromethyl)anilino]benzene-sulfonamide] has an IC50 of 0.1 to 1 µM. Compound CNS(=O)(=O)c1ccc(NC2CCCCC2)c(-c2nnn(C3CCCN(C(C)=O)C3)n2)c1 (stereo not drawn) [Compound 53, 3-(2-(1-acetylpiperidin-3-yl)-2H-tetrazol-5-yl)-4-(cyclohexylamino)-N-methylbenzenesulfonamide] has an IC50 of 0.1 to 1 µM. CNS(=O)(=O)c1ccc(NC2CCCCC2)c(-c2nnn(C3CCN(C(=O)OC(C)(C)C)C3)n2)c1 (stereo not drawn) [Compound 24, tert-butyl 3-(5-(2-(cyclohexylamino)-5-(N-methylsulfamoyl)phenyl)-2H-tetrazol-2-yl)pyrrolidine-1-carboxylate] gave an IC50 of over 3 µM. In the case of CNS(=O)(=O)c1ccc(NC2CCCCC2)c(-c2cn(C)nn2)c1 [Compound 58, 4-(cyclohexylamino)-N-methyl-3-(1-methyl-1H-1,2,3-triazol-4-yl)benzenesulfonamide], the IC50 is reported as at most 0.1 µM. Work on CNS(=O)(=O)c1ccc(NC2CCCCC2)c(-c2nnn(-c3cccnc3)n2)c1 [Compound 45, 4-(cyclohexylamino)-N-methyl-3-(2-(pyridin-3-yl)-2H-tetrazol-5-yl)benzenesulfonamide] yielded an IC50 of at most 0.1 µM. CNS(=O)(=O)c1ccc(N[C@H]2CC[C@@H](C(F)(F)F)CC2)c(-c2cn(C)cn2)c1 [Compound 150, N-methyl-3-(1-methyl-1H-imidazol-4-yl)-4-(((1s,4s)-4-(trifluoromethyl)cyclohexyl)amino) benzenesulfonamide] showed an IC50 of at most 0.1 µM. With CNS(=O)(=O)c1ccc(Nc2cccc(C(F)(F)F)c2)c(-c2nnn(C)n2)c1 [Compound 92, N-methyl-3-(2-methyl-2H-tetrazol-5-yl)-4-((3-(trifluoromethyl)phenyl)amino)benzenesulfonamide] the IC50 was at most 0.1 µM. CNS(=O)(=O)c1ccc(Nc2cc(F)ccc2F)c(-c2nnn(C)n2)c1 [Compound 110, 4-((2,5-difluorophenyl)amino)-N-methyl-3-(2-methyl-2H-tetrazol-5-yl)benzenesulfonamide] showed an IC50 of at most 0.1 µM. Cn1ccc(-c2cc(S(C)(=O)=O)ccc2NC2CCCCC2)n1 [Compound 8, N-cyclohexyl-2-(1-methyl-1H-pyrazol-3-yl)-4-(methylsulfonyl)aniline] gave an IC50 of 0.1 to 1 µM.

Reference: patent publication US11192865B2, “Benzosulfonyl compounds” (Vivace Therapeutics, Inc., priority 2017, dated 2021)
